In this assay the test system is HIV-1 (H9/IIB strain). Kind of assay: Multiple Round HIV-1 Infection Assay (Viking Assay) in MT4-GFP cells. Type of assay: cell-based. Particulars: inhibition of reproductive ratio R0. How it is done:
Assessing antiviral potency in a Multiple Round HIV-1 Infection Assay (Viking Assay) The antiviral activity of the tenofovir prodrugs of the Examples herein was assessed in an assay that measures the rate of replication of HIV in cell culture, termed the Viking assay (VIral KINetics in Green cells) and performed as follows. HIV-1 replication was monitored using MT4-gag-GFP clone D3 (hereafter designated MT4-GFP), which are MT-4 cells modified to harbor a GFP reporter gene, the expression of which is dependent on the HIV-1 expressed proteins tat and rev. Productive infection of an MT4-GFP cell with HIV-1 results in GFP expression approximately 24 h post-infection. MT4-GFP cells were maintained at 37° C./5% CO2/90% relative humidity in RPMI 1640 supplemented with 10/o fetal bovine serum, 100 U/ml penicillin/streptomycin, and 400 μg/ml G418 to maintain the reporter gene. For infections, MT4-GFP cells were placed in the same medium lacking G418 and infected overnight with HIV-1 (H9/IIB strain) virus at an approximate multiplicity of infection of 0.01 in the same incubation conditions. Cells were then washed and re-suspended in either RPMI 1640 supplemented with 10% or 50% normal human serum (NHS) at 1.6×10^5 cells/mL (10% NHS or 50% NHS, respectively). Compound plates were prepared by dispensing compounds dissolved in DMSO into wells of 384 well poly-D-lysine-coated plates (0.2 μl/well) using an ECHO acoustic dispenser. Each compound was tested in a 10-point serial 3-fold dilution (typical final concentrations: 8.4 μM-0.42 nM). Controls included no inhibitor (DMSO only) and a combination of three antiviral agents (efavirenz, indinavir, an in-house integrase strand transfer inhibitor at final concentrations of 4 μM each). Cells were added (50 μL/well) to compound plates and the infected cells were maintained at 37° C./5% CO2/90% relative humidity.
Infected cells were quantified at two time points, ˜48 h and ˜72 h post-infection, by counting the number of green cells in each well using an Acumen eX3 scanner. The increase in the number of green cells over ˜24 h period gives the reproductive ratio, R0, which is typically 5-15 and has been shown experimentally to be in logarithmic phase (data not shown). Inhibition of R0 is calculated for each well, and IC50s determined by non-linear 4-parameter curve fitting.

Where [1] appears, read: MT4-GFP cells infected with HIV-1, 10% normal human serum, read-out: Viking, IC50 (10% NHS).
Setting [2] is: MT4-GFP cells infected with HIV-1, 50% normal human serum, read-out: Viking, IC50 (50% NHS).

Where two headings read alike, the source gives them in different places.

With `CC(C)OC(=O)C(C)(C)N[P@@](=O)(CO[C@H](C)Cn1cnc2c(N)ncnc21)N[C@H](C)c1ccc(Cl)cc1` [Example 35A, isopropyl 2-(((R)-((((R)-1-(6-amino-9H-purin-9-yl)propan-2-yl)oxy)methyl)(((R)-1-(4-chlorophenyl)ethyl)amino)phosphoryl)ami-no)-2-methylpropanoate and isopropyl 2-(((S)-((((R)-1-(6-amino-9H-purin-9-yl)propan-2-yl)oxy)methyl)(((R)-1-(4-chlorophenyl)ethyl)amino)phosphoryl)ami-no)-2-methylpropanoate], the IC50 (in general, the concentration at which inhibition is half-maximal) turned out to be 0.28 µM under setting [1] and 1.6 µM under setting [2].
For `CCCOC(=O)C(C)(C)NP(=O)(CO[C@H](C)Cn1cnc2c(N)ncnc21)N[C@H](C)c1ccccc1OC` (stereo partly drawn) [Example 20B, propyl 2-(((R)-((((R)-1-(6-amino-9H-purin-9-yl)propan-2-yl)oxy)methyl)(((R)-1-(2-methoxyphenyl)ethyl)amino)phosphoryl)a-mino)-2-methylpropanoate and propyl 2-(((S)-((((R)-1-(6-amino-9H-purin-9-yl)propan-2-yl)oxy)methyl)(((R)-1-(2-methoxyphenyl)ethyl)amino)phosphoryl)a-mino)-2-methylpropanoate], the IC50 was 0.0095 µM under setting [1] and 0.053 µM under setting [2].
Turning to `CCCOC(=O)C(C)(C)N[P@@](=O)(CO[C@H](C)Cn1cnc2c(N)ncnc21)N[C@H](C)c1ccc(Cl)cc1C` [Example 29A, propyl 2-(((R)-((((R)-1-(6-amino-9H-purin-9-yl)propan-2-yl)oxy)methyl)(((R)-1-(4-chloro-2-methylphenyl)ethyl)amino)phosphoryl)ami-no)-2-methylpropanoate and propyl 2-(((S)-((((R)-1-(6-amino-9H-purin-9-yl)propan-2-yl)oxy)methyl)(((R)-1-(4-chloro-2-methyphenyl)ethyl)amino)phosphoryl)ami-no)-2-methylpropanoate], the IC50 was determined as 0.26 µM under setting [1] and 2.3 µM under setting [2].
In the case of `CCCOC(=O)C(C)(C)N[P@@](=O)(CO[C@H](C)Cn1cnc2c(N)ncnc21)N[C@H](C)c1cccc(F)c1` [Example 9A, propyl 2-(((R)-((((R)-1-(6-amino-9H-purin-9-yl)propan-2-yl)oxy)methyl)(((R)-1-(3-fluorophenyl)ethyl)amino)phosphoryl)ami-no)-2-methylpropanoate and propyl 2-(((S)-((((R)-1-(6-amino-9H-purin-9-yl)propan-2-yl)oxy)methyl)(((R)-1-(3-fluorophenyl)ethyl)amino)phosphoryl)ami-no)-2-methylpropanoate], the IC50 worked out at 0.089 µM under setting [1] and 0.94 µM under setting [2].
As for `CCCOC(=O)C(C)(C)NP(=O)(CO[C@H](C)Cn1cnc2c(N)ncnc21)N[C@@H](C)c1ccc(Cl)cc1C` (stereo partly drawn) [Example 30A, propyl 2-(((R)-((((R)-1-(6-amino-9H-purin-9-yl)propan-2-yl)oxy)methyl)(((S)-1-(4-chloro-2-methylphenyl)ethyl)amino)phosphoryl)ami-no)-2-methylpropanoate and propyl 2-(((S)-((((R)-1-(6-amino-9H-purin-9-yl)propan-2-yl)oxy)methyl)(((S)-1-(4-chloro-2-methylphenyl)ethyl)amino)phosphoryl)ami-no)-2-methylpropanoate], the IC50 is, setting by setting: under setting [1], 0.024 µM; under setting [2], 0.35 µM.
Regarding “propyl 2-(((R)-((((R)-1-(6-amino-9H-purin- 9-yl)propan-2-yl)oxy)methyl)((4- cyanobenzyl)amino)phosphoryl)amino)-2- methylpropanoate and propyl 2-(((S)-((((R)-1-(6-amino-9H-purin- 9-yl)propan-2-yl)oxy)methyl)((4- cyanobenzyl)amino)phosphoryl)amino)-2- methylpropanoate [Example 6B]”, the IC50 under setting [1] came to 0.25 µM and the IC50 under setting [2] worked out at 0.85 µM.
Turning to `CCCOC(=O)C(C)(C)N[P@@](=O)(CO[C@H](C)Cn1cnc2c(N)ncnc21)N[C@H](C)c1ccc(OC)cc1` [Example 15B, propyl 2-(((R)-((((R)-1-(6-amino-9H-purin-9-yl)propan-2-yl)oxy)methyl)(((R)-1-(4-methoxyphenyl)ethyl)amino)phosphoryl)a-mino)-2-methylpropanoate and propyl 2-(((S)-((((R)-1-(6-amino-9H-purin-9-yl)propan-2-yl)oxy)methyl)(((R)-1-(4-methoxyphenyl)ethyl)amino)phosphoryl)a-mino)-2-methylpropanoate], the IC50 by setting is: under setting [1], 0.0074 µM; under setting [2], 0.04 µM.
In the case of `CCCOC(=O)C(C)(C)NP(=O)(CO[C@H](C)Cn1cnc2c(N)ncnc21)N[C@H](C)c1ccc(C(F)(F)F)cc1` (stereo partly drawn) [Example 12A, propyl 2-(((R)-((((R)-1-(6-amino-9H-purin-9-yl)propan-2-yl)oxy)methyl)(((R)-1-(4-(trifluoromethyl)phenyl)ethyl)amino)phos-phoryl)amino)-2-methylpropanoate and propyl 2-(((S)-((((R)-1-(6-amino-9H-purin-9-yl)propan-2-yl)oxy)methyl)(((R)-1-(4-(trifluoromethyl)phenyl)ethyl)amino)phos-phoryl)amino)-2-methylpropanoate], the IC50 under setting [1] turned out to be 0.096 µM and the IC50 under setting [2] came to 0.68 µM.
For “propyl 2-(((R)-((((R)-1-(6-amino-9H-purin- 9-yl)propan-2-yl)oxy)methyl)((3- fluorobenzyl)amino)phosphoryl)amino)-2- methylpropanoate and propyl 2-(((S)-((((R)-1-(6-amino-9H-purin- 9-yl)propan-2-yl)oxy)methyl)((3- fluorobenzyl)amino)phosphoryl)amino)-2- methylpropanoate [Example 8A]”, the IC50 turned out to be 0.11 µM under setting [1] and 0.68 µM under setting [2].
In the case of `CCCOC(=O)C(C)(C)NP(=O)(CO[C@H](C)Cn1cnc2c(N)ncnc21)N[C@H](c1ccc(OC(F)(F)F)cc1)C(F)(F)F` (stereo partly shown) [Example 4B], the IC50 amounted to 0.016 µM under setting [1] and 0.16 µM under setting [2].
The corresponding values for “isopropyl 2-(((R)-((((R)-1-(6-amino-9H- purin-9-yl)propan-2-yl)oxy)methyl)((2-(4- chlorophenyl)propan-2- yl)amino)phosphoryl)amino)-2- methylpropanoate and isopropyl 2-(((S)-((((R)-1-(6-amino-9H- purin-9-yl)propan-2-yl)oxy)methyl)((2-(4- chlorophenyl)propan-2- yl)amino)phosphoroyl)amino)-2- methylpropanoate [Example 36B]” are 0.2 µM and 1.1 µM.
With “propyl 2-(((R)-((((R)-1-(6-amino-9H-purin- 9-yl)propan-2-yl)oxy)methyl)((3- fluorobenzyl)amino)phosphoryl)amino)-2- methylpropanoate and propyl 2-(((S)-((((R)-1-(6-amino-9H-purin- 9-yl)propan-2-yl)oxy)methyl)((3- fluorobenzyl)amino)phosphoryl)amino)-2- methylpropanoate [Example 8B]”, the IC50 is 0.076 µM under setting [1] and 0.68 µM under setting [2].
With `CCCOC(=O)C(C)(C)N[P@@](=O)(CO[C@H](C)Cn1cnc2c(N)ncnc21)N[C@H](c1cccc(F)c1)C(F)(F)F` [Example 22A, propyl 2-(((R)-((((R)-1-(6-amino-9H-purin-9-yl)propan-2-yl)oxy)methyl)(((R)-2,2,2-trifluoro-1-(3-fluorophenyl)ethyl)amino)phosphoryl)ami-no)-2-methylpropanoate and propyl 2-(((S)-((((R)-1-(6-amino-9H-purin-9-yl)propan-2-yl)oxy)methyl)(((R)-2,2,2-trifluoro-1-(3-fluorophenyl)ethyl)amino)phosphoryl)ami-no)-2-methylpropanoate], the IC50 was 0.0081 µM under setting [1] and 0.074 µM under setting [2].
`CCCOC(=O)C(C)(C)N[P@@](=O)(CO[C@H](C)Cn1cnc2c(N)ncnc21)N[C@@H](C)c1ccccc1OC` [Example 17B, propyl 2-(((R)-((((R)-1-(6-amino-9H-purin-9-yl)propan-2-yl)oxy)methyl)(((S)-1-(2-methoxyphenyl)ethyl)amino)phosphoryl)a-mino)-2-methylpropanoate and propyl 2-(((S)-((((R)-1-(6-amino-9H-purin-9-yl)propan-2-yl)oxy)methyl)(((S)-1-(2-methoxyphenyl)ethyl)amino)phosphoryl)a-mino)-2-methylpropanoate]: the IC50 reads like this: under setting [1], 0.084 µM; under setting [2], 0.51 µM.

The values above are taken from patent US11123355B2, “Antiviral benzyl-amine phosphodiamide compounds” (Merck Sharp & Dohme Corp., priority 2016, dated 2021).
